In patent publication US20140066394A1, “Substituted 6-(Benzylamino) Purine Riboside Derivatives, Use Thereof and Compositions Containing These Derivatives” (Biopatterns, S.R.O, priority 2009, published 2014):

Assay: Solubility noted on isolation of the product
Type: physicochemical
Conditions: qualitative, solvent as stated
Protocol: 2-Benzylmercapto-6-(2-hydroxy-3-methoxybenzylamino)purine riboside (1.18 g) was dissolved in liquid ammonia (125 mL) to yield a clear yellow solution. […]. Sodium was added in small portions until the blue colouration persisted for 15 mins A small amount of solid ammonium chloride was added cautiously to remove excess Na. The ammonia was evaporated to a small volume on a hot plate and ether (125 mL) added (to remove bibenzyl formed as a by-product). After most of the remaining ammonia had been evolved the ether extract was extracted with water (2×65 mL). The aqueous extrakt (at pH 12 to 13) was adjusted to 5 with AcOH cooling to below 10 on dry ice. A creamy solid precipitated. The solid was filtered, washed thoroughly with water and dried overnight over calcium chloride to yield a virtually white, very light powder. Yield: 760 mg. 2-Mercapto-6-(2-hydroxy-3-methoxybenzylamino)purine riboside gives a sharp, symmetrical peak on HPLC (300 nm) and moves readily on TLC in MeOH/chloroform mixtures. […] EtOH solution develops strong yellow colour on standing at room temperature for several days.
2-Methylmercapto-6-chloropurine riboside (3.3 g, 10 mmol) was refluxed with 2-hydroxy-3-methoxybenzylamine ([…], 12 5 mmol) in butanol (100 mL) containing triethylamine (3.2 mL) for 2 h. The butanol was removed under vacuum at 50 to 60° C. […]

In the case of `COc1cccc(CNc2nc(SC)nc3c2ncn3[C@@H]2O[C@H](CO)[C@@H](O)[C@H]2O)c1O` [Compound 87, 2-Methylmercapto-6-(2-hydroxy-3-methoxybenzylamino)purine riboside], the solubility is reported as “very soluble in methanol and water”.

With `COc1cccc(CNc2nc(S)nc3c2ncn3[C@@H]2O[C@H](CO)[C@@H](O)[C@H]2O)c1O` [Compound 71, 2-Mercapto-6-(2-hydroxy-3-methoxybenzylamino)purine riboside] the solubility was “soluble in EtOH”.
